The text below walks through data of ChEMBL document CHEMBL1156230, “Identification of phenylsulfone-substituted quinoxaline (WYE-672) as a tissue selective liver X-receptor (LXR) agonist” (J Med Chem, 2010).

The structures appear in SMILES notation. The source made the active and inactive calls. The calls are words filed in the database; no cut-off is given here. A value given as a limit tells only on which side of the number the result lay.

Data set [1] relates to THP-1. Nature of the data set: cells. To be noted: Homo sapiens.
The nature of data set [2]: Tmax in C57 mouse at 10 mg/kg, po. It counts as ADME, organism-based. Also noted: dose 10 mg/kg, route oral. To be noted: in vivo.
The subject of data set [3] is THP-1. The experiment in a line: Induction of [3H]cholesterol efflux in human THP1 cells assessed as lipid accumulation. The format is functional, cell-based.
The target in data set [4] is T1, Oxysterols receptor LXR-alpha (Homo sapiens, UniProt Q13133).
T1 sequence (Q13133 whole entry): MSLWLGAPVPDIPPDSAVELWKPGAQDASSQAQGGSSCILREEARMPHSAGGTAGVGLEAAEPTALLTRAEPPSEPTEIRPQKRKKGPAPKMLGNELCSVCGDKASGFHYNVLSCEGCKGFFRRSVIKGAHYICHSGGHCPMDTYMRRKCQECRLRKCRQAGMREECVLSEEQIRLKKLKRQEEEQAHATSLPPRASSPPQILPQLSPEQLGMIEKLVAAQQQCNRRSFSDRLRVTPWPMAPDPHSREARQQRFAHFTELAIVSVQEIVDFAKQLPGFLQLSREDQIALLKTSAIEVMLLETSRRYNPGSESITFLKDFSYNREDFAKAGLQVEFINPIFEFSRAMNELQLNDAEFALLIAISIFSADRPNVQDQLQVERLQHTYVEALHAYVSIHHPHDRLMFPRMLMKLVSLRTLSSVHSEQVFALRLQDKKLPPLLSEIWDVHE
Nature of the data set: Displacement of [3H]T0901317 from human LXRalpha ligand binding domain.

The target in data set [5] is T2, Androgen receptor (Homo sapiens) (UniProt P10275).
T2 sequence (whole entry): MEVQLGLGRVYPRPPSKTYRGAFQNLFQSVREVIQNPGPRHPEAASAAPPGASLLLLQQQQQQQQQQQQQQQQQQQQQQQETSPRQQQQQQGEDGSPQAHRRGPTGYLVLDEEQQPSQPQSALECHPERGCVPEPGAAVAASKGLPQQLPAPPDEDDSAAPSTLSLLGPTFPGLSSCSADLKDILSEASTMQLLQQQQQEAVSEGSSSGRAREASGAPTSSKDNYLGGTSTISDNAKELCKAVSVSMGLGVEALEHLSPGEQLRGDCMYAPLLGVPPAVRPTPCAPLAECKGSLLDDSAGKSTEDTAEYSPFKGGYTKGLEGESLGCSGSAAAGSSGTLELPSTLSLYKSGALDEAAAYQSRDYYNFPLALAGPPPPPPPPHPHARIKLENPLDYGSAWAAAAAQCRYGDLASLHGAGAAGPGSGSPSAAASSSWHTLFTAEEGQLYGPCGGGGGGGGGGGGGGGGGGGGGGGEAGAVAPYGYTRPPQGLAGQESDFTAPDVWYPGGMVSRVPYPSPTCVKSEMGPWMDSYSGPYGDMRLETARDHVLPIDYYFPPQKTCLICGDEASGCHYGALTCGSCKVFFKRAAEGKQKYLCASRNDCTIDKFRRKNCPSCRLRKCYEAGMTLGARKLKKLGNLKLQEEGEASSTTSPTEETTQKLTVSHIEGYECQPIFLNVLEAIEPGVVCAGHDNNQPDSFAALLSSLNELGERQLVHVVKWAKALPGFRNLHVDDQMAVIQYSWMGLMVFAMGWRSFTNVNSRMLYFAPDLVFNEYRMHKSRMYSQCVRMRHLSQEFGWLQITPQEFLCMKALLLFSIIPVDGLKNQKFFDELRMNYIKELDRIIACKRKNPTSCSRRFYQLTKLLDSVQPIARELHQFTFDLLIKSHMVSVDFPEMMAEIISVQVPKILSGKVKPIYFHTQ
The experiment in a line: Binding affinity to androgen receptor.

As for `Cc1nc2c(C(F)(F)F)cccc2nc1-c1ccc(-c2cccc(S(C)(=O)=O)c2)cc1`, the EC50 was 1.09 µM in the data set on THP-1 [1] and 0.072 µM in the data set on THP-1 [3]. In addition, in data set [2], the Tmax stood at 4 h. The compound also registered an IC50 in data set [4] above 1 µM. Besides, the outcome in data set [5] was inactive.

By EC50 is commonly meant the concentration needed to bring the measured effect to its halfway point. As a reminder, the Tmax is the time at which the peak concentration occurs. Broadly, the IC50 is the concentration that inhibits the measured activity by half.
